Reference: patent publication US20230041065A1, “METHODS FOR GENERATING HEMATOPOIETIC STEM CELLS” (The Brigham and Women`s Hospital, Inc., priority 2019, published 2023)

What was measured:
E11.5 AGM-derived HSCs = experiment: Serial transplantation of E11.5 AGM-derived HSCs into irradiated mice; type: in vivo, mouse
Experimental: Pulsating blood vessels like conditions were stimulated in vitro using Flexcell FX-4000 machine. To analyze roles of pharmacological targets in regulating the endothelial-to-HSC transition, mouse embryo-derived AGM or whole mouse embryo were exposed ex vivo with biomechanical stretching, chemicals, or drugs. Next, hematopoietic colony formation assays were performed by incubating mouse AGM-derived cells in StemCell M3434 media for seven days. Serial transplantation of AGM-derived HSCs in lethally irradiated SJL mice were performed. The stem cell frequency upon biomechanical stretching was analyzed using a limiting dilution assay. To characterize properties of AGM-HSC-derived blood cells in primary transplants, percentage chimerism and reconstitution was measured using FACS, globin transcripts were analyzed using quantitative reverse transcriptase-PCR, myeloperoxidase amount was measured using PicoKine ELISA kit, TCR-β rearrangement was analyzed using PCR for TCR-β locus, pre-immune IG detection was analyzed using Thermo-Fisher Mouse Ig Isotyping kit, and delayed-type hypersensitivity was analyzed by injecting sheep RBC (Rockland Immunochemicals) in the footpad of pre-sensitized mice.
For primary transplantation, three-embryo equivalents of untreated or treated (cyclic strain or 25 μM Yoda1) AGMs plus splenic helper cells (˜500,000 per mouse) were injected into lethally irradiated (split dose […]) Cd45.1 (SJL) mice by retro-orbital injection. For secondary and tertiary transplants, the bone marrow was isolated (legs, arm, pelvic bone, spine, sternum) from the transplanted mice. The bone marrow was loaded on a Ficoll gradient (Histopaque®-1083, Sigma-Aldrich), and the cells from the buffy coat incubated with biotin-conjugated lineage antibodies and streptavidin microbeads (Miltenyi Biotec). Next, the lineage negative (Lin^−) cells were separated with MACS LS Columns (Miltenyi Biotec), and the donor Cd45.2 Lin^−Sca1+c-Kit^+ (LSK) cells sorted with a MoFlo Beckman Coulter sorter. Subsequently, the sorted Cd45.2 LSK cells were mixed with Cd45.1 splenic helper cells (˜500,000 per mouse) and transplanted into Cd45.1 irradiated (split dose […]) SJL mice by retro-orbital injection.
AGM cells from explants and ex vivo were stained with Sca1-Pacific-Blue (E13-161.7, Biolegend) and Flk1-APC-Cy7 (Avas 12α1, BD). Blood from transplanted mice was stained with the following antibody cocktail: Cd45.2-Pacific-Blue (104, Biolegend), Cd45.1-FITC (A20, Biolegend), Cd3-PE (145-2C11, Biolegend), Cd8-PE (53-6.7, Biolegend), Mac1-APC (M1/70, Biolegend), Gr1-APC (108412, Biolegend), Cd19-APC-CY7(6D5, Biolegend), B220-APC-CY7 (RA3-6B2, Biolegend). […]

E11.5 AGM cells = experiment: Hematopoietic CFU and FACS assays on E11.5 AGM cells; type: cell-based, mouse
Experimental: Pulsating blood vessels like conditions were stimulated in vitro using Flexcell FX-4000 machine. To analyze roles of pharmacological targets in regulating the endothelial-to-HSC transition, mouse embryo-derived AGM or whole mouse embryo were exposed ex vivo with biomechanical stretching, chemicals, or drugs. Next, hematopoietic colony formation assays were performed by incubating mouse AGM-derived cells in StemCell M3434 media for seven days. Serial transplantation of AGM-derived HSCs in lethally irradiated SJL mice were performed. The stem cell frequency upon biomechanical stretching was analyzed using a limiting dilution assay. To characterize properties of AGM-HSC-derived blood cells in primary transplants, percentage chimerism and reconstitution was measured using FACS, globin transcripts were analyzed using quantitative reverse transcriptase-PCR, myeloperoxidase amount was measured using PicoKine ELISA kit, TCR-β rearrangement was analyzed using PCR for TCR-β locus, pre-immune IG detection was analyzed using Thermo-Fisher Mouse Ig Isotyping kit, and delayed-type hypersensitivity was analyzed by injecting sheep RBC (Rockland Immunochemicals) in the footpad of pre-sensitized mice. E11.5 AGM were harvested from C57BL6/J Cd45.2 mouse embryos, and a single cell suspension of a three-embryo equivalent of cells was seeded on each well of a BioFlex six-well culture plate ([…]). We cultured cells overnight with the application of cyclic strain (Flexcell® FX4000TM Tension System) and/or treatment with chemical modulators (2-100 μM Yoda1, 1 μM Nanaomycin, 100 μM Gdcl3, 1 uM GsMT×4, 5-20 μM 4αPDD, 10 uM GSK205). Next, harvested cells were used to perform transplant, fluorescence-activated cell sorting (FACS) analysis, and colony-forming unit (CFU) assays. For CFU assays, cells from AGM explant or ex vivo were plated in MethoCult GF M3434 media (StemCell Technologies). Seven days after seeding, we analyzed their capacity to make granulocyte, erythroid, macrophage, megakaryocyte (GEMM), granulocyte macrophage (GM), granulocyte (G), macrophage (M), and erythroid (E) colonies.

## Clc1cccc(Cl)c1CSc1nnc(-c2cnccn2)s1 [Yoda1, 2-[5-[[(2,6-Dichlorophenyl)methyl]thio]-1,3,4-thiadiazol-2-yl]-pyrazine]
E11.5 AGM-derived HSCs; primary transplant, week 16
  percentage reconstitution to myeloid cells, T-cells and B-cells: stimulates the formation of HSCs that reconstitute to the blood
E11.5 AGM-derived HSCs; primary transplant, weeks 8-16, treated E11.5 AGM donor cells
  percentage peripheral blood chimerism: stimulates the formation of HSCs
E11.5 AGM-derived HSCs; secondary transplant, week 12
  percentage reconstitution to myeloid cells, T-cells and B-cells: produces HSCs that can serially reconstitute to the blood
E11.5 AGM-derived HSCs; secondary transplant, weeks 8-12
  percentage peripheral blood chimerism: produces HSCs that have serial engraftment and self-renewal capacities
E11.5 AGM cells; 25 μM
  GEMM formation: enhances GEMM formation
E11.5 AGM cells; E11.5 AGM cells vs. control
  hematopoietic colony formation (endothelial-to-hematopoietic transition): stimulates the endothelial-to-hematopoietic transition
